According to PubChem BioAssay AID276 (DTP/NCI, 2004):
“And” between values parts separate entries of the source, which are not always exact repeats. Equal entries are not always repeated. Toxic doses and inconclusive results are not listed.

System: B6C3F1 mice, Lewis lung carcinoma iv, survival T/C
Experiment: NCI In Vivo Anticancer Drug Screen. Data for tumor model Lewis Lung Carcinoma (intravenous) in B6C3F1 mice
Conditions: endpoint: median survival time, higher = longer survival
Procedure, shortened: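 Read-out is survival, expressed as the treated-group measurement over the vehicle control-group measurement. Animals bore a transplantable tumor and were given compound.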

[1] = dose: 6.25 mg/kg/injection, schedule: Q01DX009 (ip), vehicle: saline with Tween-80
[2] = dose: 12.5 mg/kg/injection, schedule: Q01DX009 (ip), vehicle: saline with Tween-80
[3] = dose: 25.0 mg/kg/injection, schedule: Q01DX009 (ip), vehicle: saline with Tween-80
[4] = dose: 50.0 mg/kg/injection, schedule: Q01DX009 (ip), vehicle: saline with Tween-80
[5] = dose: 100.0 mg/kg/injection, schedule: Q01DX009 (ip), vehicle: saline with Tween-80
[6] = dose: 12.5 mg/kg/injection, schedule: Q01DX009 (ip), vehicle: Klucel (hydroxypropylcellulose) (HPC)
[7] = dose: 25.0 mg/kg/injection, schedule: Q01DX009 (ip), vehicle: Klucel (hydroxypropylcellulose) (HPC)
[8] = dose: 50.0 mg/kg/injection, schedule: Q01DX009 (ip), vehicle: Klucel (hydroxypropylcellulose) (HPC)
[9] = dose: 100.0 mg/kg/injection, schedule: Q01DX009 (ip), vehicle: Klucel (hydroxypropylcellulose) (HPC)
[10] = dose: 200.0 mg/kg/injection, schedule: Q01DX009 (ip), vehicle: Klucel (hydroxypropylcellulose) (HPC)
[11] = dose: 6.25 mg/kg/injection, schedule: Q01DX009 (ip), vehicle: saline
[12] = dose: 12.5 mg/kg/injection, schedule: Q01DX009 (ip), vehicle: saline
[13] = dose: 25.0 mg/kg/injection, schedule: Q01DX009 (ip), vehicle: saline
[14] = dose: 50.0 mg/kg/injection, schedule: Q01DX009 (ip), vehicle: saline
[15] = dose: 12.5 mg/kg/injection, schedule: Q01DX009 (ip), vehicle: suspension in saline
[16] = dose: 25.0 mg/kg/injection, schedule: Q01DX009 (ip), vehicle: suspension in saline

O=S(=O)(CCl)OCCCl
T/C [1]: 103 % of control and 86 % of control
T/C [2]: 100 % of control and 111 % of control
T/C [3]: 99 % of control and 101 % of control and 109 % of control
T/C [4]: 104 % of control and 114 % of control and 88 % of control
T/C [5]: 118 % of control and 258 % of control

CCC1CCCCN1C(=S)N/N=C(\C)c1ccccn1 (centres undefined)
T/C [1]: 101 % of control
T/C [2]: 115 % of control
T/C [3]: 104 % of control

CCN(CC)Cc1cc2[nH]c3c4ccc(Cl)cc4ncc3c2cc1OC
T/C [2]: 97 % of control
T/C [3]: 101 % of control
T/C [4]: 101 % of control

C[n+]1c(-c2cccc(OCCOCCOc3cccc(-c4c5cc(N)ccc5c5ccc(N)cc5[n+]4C)c3)c2)c2cc(N)ccc2c2ccc(N)cc21
T/C (dose: 0.5 mg/kg/injection, schedule: Q01DX009 (ip), vehicle: water): 105 % of control
T/C (dose: 0.75 mg/kg/injection, schedule: Q01DX009 (ip), vehicle: saline with Tween-80): 103 % of control
T/C (dose: 1.0 mg/kg/injection, schedule: Q01DX009 (ip), vehicle: water): 96 % of control
T/C (dose: 1.5 mg/kg/injection, schedule: Q01DX009 (ip), vehicle: saline with Tween-80): 102 % of control
T/C (dose: 2.0 mg/kg/injection, schedule: Q01DX009 (ip), vehicle: water): 100 % of control
T/C (dose: 3.0 mg/kg/injection, schedule: Q01DX009 (ip), vehicle: saline with Tween-80): 99 % of control
T/C (dose: 4.0 mg/kg/injection, schedule: Q01DX009 (ip), vehicle: water): 100 % of control and 105 % of control
T/C (dose: 6.0 mg/kg/injection, schedule: Q01DX009 (ip), vehicle: saline with Tween-80): 108 % of control
T/C (dose: 8.0 mg/kg/injection, schedule: Q01DX009 (ip), vehicle: water): 105 % of control and 110 % of control
T/C (dose: 16.0 mg/kg/injection, schedule: Q01DX009 (ip), vehicle: water): 116 % of control

O=C(O)CSc1c(Cl)c(=O)oc2ccc(Cl)cc12
T/C (dose: 6.25 mg/kg/injection, schedule: Q01DX009 (ip), vehicle: Klucel (hydroxypropylcellulose) (HPC)): 93 % of control
T/C [6]: 93 % of control
T/C [7]: 94 % of control
T/C [8]: 98 % of control
T/C [9]: 98 % of control

O=c1oc2c(O)c(O)cc3c(=O)oc4c(O)c(O)cc1c4c23
T/C [6]: 105 % of control
T/C [7]: 105 % of control
T/C [8]: 106 % of control
T/C [9]: 110 % of control

Oc1c(Cl)cc(C(c2cc(Cl)c(O)c(Cl)c2)C(c2cc(Cl)c(O)c(Cl)c2)c2cc(Cl)c(O)c(Cl)c2)cc1Cl
T/C [6]: 98 % of control
T/C [7]: 101 % of control
T/C [8]: 104 % of control
T/C [9]: 103 % of control
T/C [10]: 106 % of control

CC(C)N1CC(COc2cccc3ccccc23)OP1(=O)N(CCCl)CCCl (centres undefined)
T/C (dose: 1.56 mg/kg/injection, schedule: Q01DX009 (ip), vehicle: distilled water + Tween-80): 98 % of control
T/C (dose: 3.13 mg/kg/injection, schedule: Q01DX009 (ip), vehicle: distilled water + Tween-80): 96 % of control
T/C (dose: 6.25 mg/kg/injection, schedule: Q01DX009 (ip), vehicle: distilled water + Tween-80): 101 % of control
T/C (dose: 12.5 mg/kg/injection, schedule: Q01DX009 (ip), vehicle: distilled water + Tween-80): 102 % of control
T/C (dose: 25.0 mg/kg/injection, schedule: Q01DX009 (ip), vehicle: distilled water + Tween-80): 102 % of control
T/C (dose: 50.0 mg/kg/injection, schedule: Q01DX009 (ip), vehicle: distilled water + Tween-80): 95 % of control
T/C (dose: 100.0 mg/kg/injection, schedule: Q01DX009 (ip), vehicle: distilled water + Tween-80): 106 % of control
T/C (dose: 200.0 mg/kg/injection, schedule: Q01DX009 (ip), vehicle: distilled water + Tween-80): 90 % of control
T/C (dose: 400.0 mg/kg/injection, schedule: Q01DX009 (ip), vehicle: distilled water + Tween-80): 90 % of control

CO[C@@]12[C@@H]3N[C@@H]3CN1C1=C(C(=O)C(NCC3CCCO3)=C(C)C1=O)[C@@H]2COC(N)=O (some centres undefined)
T/C (dose: 1.5 mg/kg/injection, schedule: Q01DX009 (ip), vehicle: distilled water + Tween-80): 104 % of control
T/C (dose: 3.0 mg/kg/injection, schedule: Q01DX009 (ip), vehicle: distilled water + Tween-80): 104 % of control
T/C (dose: 6.0 mg/kg/injection, schedule: Q01DX009 (ip), vehicle: distilled water + Tween-80): 116 % of control

O=P1(N(CCCl)CCCl)NCCCO1 (centres undefined)
T/C (dose: 6.0 mg/kg/injection, schedule: Q01DX009 (ip), vehicle: saline): 105 % of control
T/C [11]: 108 % of control
T/C (dose: 12.0 mg/kg/injection, schedule: Q01DX009 (ip), vehicle: saline): 116 % of control
T/C [12]: 123 % of control
T/C (dose: 25.0 mg/kg/injection, schedule: Q01DX001 (ip), vehicle: saline): 110 % of control
T/C [13]: 191 % of control
T/C (dose: 37.0 mg/kg/injection, schedule: Q01DX001 (ip), vehicle: saline): 120 % of control
T/C (dose: 48.4 mg/kg/injection, schedule: Q01DX001 (ip), vehicle: saline): 103 % of control
T/C (dose: 50.0 mg/kg/injection, schedule: Q01DX001 (ip), vehicle: saline): 116 % of control and 122 % of control
T/C [14]: 337 % of control
T/C (dose: 64.4 mg/kg/injection, schedule: Q01DX001 (ip), vehicle: saline): 115 % of control
T/C (dose: 75.0 mg/kg/injection, schedule: Q01DX001 (ip), vehicle: saline): 171 % of control
T/C (dose: 100.0 mg/kg/injection, schedule: Q01DX001 (ip), vehicle: saline): 151 % of control and 152 % of control and 188 % of control
T/C (dose: 150.0 mg/kg/injection, schedule: Q01DX001 (ip), vehicle: saline): 349 % of control
T/C (dose: 300.0 mg/kg/injection, schedule: Q01DX001 (ip), vehicle: saline): 230 % of control
T/C (dose: 400.0 mg/kg/injection, schedule: Q01DX001 (ip), vehicle: saline): 312 % of control

Cc1ccc2nc(-c3ccc4nc(-c5ccc(N=Nc6ccc(-c7nc8ccc(-c9nc%10ccc(C)c(S(=O)(=O)O)c%10s9)cc8s7)cc6)cc5)sc4c3)sc2c1S(=O)(=O)O
T/C [15]: 95 % of control
T/C [16]: 98 % of control
T/C (dose: 50.0 mg/kg/injection, schedule: Q01DX009 (ip), vehicle: suspension in saline): 107 % of control
T/C (dose: 100.0 mg/kg/injection, schedule: Q01DX009 (ip), vehicle: suspension in saline): 107 % of control

O=N[O-].O=N[O-].O=N[O-].[Co+3].[NH-]CC[N-]CC[NH-]
T/C [11]: 98 % of control
T/C [12]: 115 % of control
T/C [13]: 117 % of control
T/C [14]: 90 % of control

O=C(O)C1(NO)CCCCC1
T/C [6]: 95 % of control and 106 % of control
T/C [7]: 101 % of control and 106 % of control
T/C [8]: 100 % of control and 101 % of control
T/C [9]: 102 % of control and 105 % of control
T/C [10]: 95 % of control and 108 % of control
T/C (dose: 400.0 mg/kg/injection, schedule: Q01DX009 (ip), vehicle: Klucel (hydroxypropylcellulose) (HPC)): 97 % of control and 109 % of control

O=C(Nc1nncs1)c1cccs1
T/C [2]: 111 % of control
T/C [3]: 93 % of control
T/C [4]: 96 % of control
T/C [5]: 103 % of control

CCCCCCCCCCCCCCCCCCOCC(COP(=O)([O-])OCC[N+](C)(C)C)OC (centres undefined)
T/C (dose: 6.25 mg/kg/injection, schedule: Q01DX009 (ip), vehicle: suspension in saline): 96 % of control
T/C [15]: 99 % of control
T/C [16]: 100 % of control

NC(=O)c1ncn2c(=O)n(CCCl)nnc12
T/C (dose: 3.13 mg/kg/injection, schedule: Q01DX009 (ip), vehicle: saline): 113 % of control
T/C [11]: 123 % of control
T/C [13]: 309 % of control

CN(C)c1nc(N(C)C)nc(N(C)C)n1
T/C [3]: 101 % of control
T/C [4]: 114 % of control
T/C [5]: 109 % of control
T/C (dose: 200.0 mg/kg/injection, schedule: Q01DX009 (ip), vehicle: saline with Tween-80): 111 % of control

CN(N=O)C(N)=O
T/C (dose: 3.0 mg/kg/injection, schedule: Q01DX009 (ip), vehicle: saline): 123 % of control
T/C [13]: 107 % of control

C=C/C(C)=C/[C@H](C)C(=O)C[C@H](O)CC1CC(=O)NC(=O)C1
T/C (dose: 6.25 mg/kg/injection, schedule: Q01DX009 (ip), vehicle: other): 96 % of control
T/C (dose: 12.5 mg/kg/injection, schedule: Q01DX009 (ip), vehicle: other): 96 % of control
T/C (dose: 25.0 mg/kg/injection, schedule: Q01DX009 (ip), vehicle: other): 97 % of control
T/C (dose: 50.0 mg/kg/injection, schedule: Q01DX009 (ip), vehicle: other): 92 % of control
T/C (dose: 100.0 mg/kg/injection, schedule: Q01DX009 (ip), vehicle: other): 96 % of control
T/C (dose: 200.0 mg/kg/injection, schedule: Q01DX009 (ip), vehicle: other): 100 % of control
